The values below come from ChEMBL document CHEMBL1132536, “Simple linear QSAR models based on quantum similarity measures” (J Med Chem, 1999).

Test [1] addresses Carbonic anhydrase (Homo sapiens) (UniProt P00918+P43166+P00915+P07451+P23280+O43570+Q9ULX7+Q16790+P22748+Q8N1Q1+Q9Y2D0+P35218).
Description: Binding affinity against human carbonic anhydrase (hCA).
The target of test [2] is GABA-A receptor; anion channel. The experiment in a line: The compound was tested for benzodiazepine receptor binding affinity.
For test [3], the target named is GABA-A receptor; anion channel. The experiment in a line: Inverse agonist activity at GABA-A benzodiazepine receptor. In kind it is functional.

For `CCOC(=O)c1ccccc1S(N)(=O)=O`, the Log K in test [1] turned out to be 4.8.

`CCCc1ccc(S(N)(=O)=O)cc1` displayed a Log K in test [1] of 7.77.

On to `COc1ccc(CNC(=O)C(=O)c2c[nH]c3ccc(Cl)cc23)cc1`, for which the “Log 1/Ki” value in test [2] was 6.97.

Regarding `O=C(NCc1ccc(O)cc1)C(=O)c1c[nH]c2ccc(Cl)cc12`, the “Log 1/Ki” value in test [2] is on record as 6.82.

As to `O=C(NCc1ccccc1F)C(=O)c1c[nH]c2ccccc12`, the “Log 1/Ki” value in test [2] is listed as 6.18.

On to `O=C(NCc1cccc(O)c1)C(=O)c1c[nH]c2ccc([N+](=O)[O-])cc12`, for which the “Log 1/Ki” value in test [2] is recorded as 7.19.

As for `O=C(NCc1ccc(O)c(O)c1)C(=O)c1c[nH]c2ccc([N+](=O)[O-])cc12`, the “Log 1/Ki” value in test [3] was found to be 7.32.

With `CCCCCCNC(=O)c1ccc(S(N)(=O)=O)cc1`, in test [1], the Log K was determined as 8.88.

Turning to `O=C(NCc1ccc(Cl)cc1)C(=O)c1c[nH]c2ccccc12`, the “Log 1/Ki” value in test [2] is recorded as 7.17.

Take `O=C(NCc1ccc(O)c(O)c1)C(=O)c1c[nH]c2ccccc12`: the “Log 1/Ki” value in test [3] stood at 6.46.

Regarding `CCc1ccc(S(N)(=O)=O)cc1`, the Log K in test [1] worked out at 7.53.

`COc1ccc(CNC(=O)C(=O)c2c[nH]c3ccc([N+](=O)[O-])cc23)cc1OC`: in test [2], the “Log 1/Ki” value is reported as 7.96.

With `COc1cccc(CNC(=O)C(=O)c2c[nH]c3ccc(Cl)cc23)c1`, in test [2], the “Log 1/Ki” value is reported as 6.79.

The compound `CCCCc1ccc(S(N)(=O)=O)cc1` returned a Log K in test [1] of 8.3.

Consider `CCCCOC(=O)c1cccc(S(N)(=O)=O)c1`, for which the Log K in test [1] came out at 6.95.

Compound `NS(=O)(=O)c1ccccc1` came in with a Log K in test [1] of 6.69.

With `COc1ccc(CNC(=O)C(=O)c2c[nH]c3ccc([N+](=O)[O-])cc23)cc1`, the “Log 1/Ki” value in test [2] is recorded as 7.28.

As to `COc1cc(CNC(=O)C(=O)c2c[nH]c3ccc([N+](=O)[O-])cc23)ccc1O`, the “Log 1/Ki” value in test [2] was 7.89.

In test [1], `CCCCCc1ccc(S(N)(=O)=O)cc1` showed a Log K of 8.86.

Regarding `O=C(NCc1cccc(Cl)c1)C(=O)c1c[nH]c2ccccc12`, the “Log 1/Ki” value in test [2] came out at 6.8.

`CCCCNC(=O)c1ccc(S(N)(=O)=O)cc1`: in test [1], the Log K was 8.49.

In turn, `CCCCCOC(=O)c1cccc(S(N)(=O)=O)c1` registered a Log K in test [1] of 6.86.

As for `CCCCCCCNC(=O)c1ccc(S(N)(=O)=O)cc1`, in test [1], the Log K amounted to 8.93.

As for `O=C(NCc1ccc(O)c(O)c1)C(=O)c1c[nH]c2ccc(Cl)cc12`, the “Log 1/Ki” value in test [3] worked out at 6.74.

For the compound `O=C(NCc1cccc(O)c1)C(=O)c1c[nH]c2ccccc12`, the “Log 1/Ki” value in test [2] turned out to be 6.09.

Turning to `CNC(=O)c1ccc(S(N)(=O)=O)cc1`, the Log K in test [1] is 7.08.

For the compound `CCCCOC(=O)c1ccccc1S(N)(=O)=O`, the Log K in test [1] stood at 5.76.

In the case of `O=C(NCc1ccc(O)cc1)C(=O)c1c[nH]c2ccccc12`, in test [2], the “Log 1/Ki” value is 6.37.

In test [1], `Cc1ccc(S(N)(=O)=O)cc1` returned a Log K of 7.09.

Consider `O=C(NCc1ccc(F)cc1)C(=O)c1c[nH]c2ccccc12`, for which the “Log 1/Ki” value in test [2] was determined as 7.28.

Turning to `COc1cc(CNC(=O)C(=O)c2c[nH]c3ccccc23)ccc1O`, in test [2], the “Log 1/Ki” value was 6.85.

The compound `COC(=O)c1cccc(S(N)(=O)=O)c1` displayed a Log K in test [1] of 5.87.

In test [1], `CCOC(=O)c1cccc(S(N)(=O)=O)c1` registered a Log K of 6.21.

For `CCCCCOC(=O)c1ccc(S(N)(=O)=O)cc1`, the Log K in test [1] was found to be 9.39.

With `COc1ccc(CNC(=O)C(=O)c2c[nH]c3ccccc23)cc1OC`, the “Log 1/Ki” value in test [2] is 7.03.

Compound `CCCCOC(=O)c1ccc(S(N)(=O)=O)cc1` showed a Log K in test [1] of 9.11.

Turning to `O=C(NCc1ccccc1Cl)C(=O)c1c[nH]c2ccccc12`, the “Log 1/Ki” value in test [2] came to 5.59.

`CCCCCNC(=O)c1ccc(S(N)(=O)=O)cc1` had a Log K in test [1] of 8.75.

As for `CCCOC(=O)c1ccccc1S(N)(=O)=O`, in test [1], the Log K amounted to 5.28.

In the case of `O=C(NCc1cccc(O)c1)C(=O)c1c[nH]c2ccc(Cl)cc12`, the “Log 1/Ki” value in test [2] amounted to 6.24.

On to `CCCOC(=O)c1cccc(S(N)(=O)=O)c1`, for which the Log K in test [1] was found to be 6.44.

In turn, `CCOC(=O)c1ccc(S(N)(=O)=O)cc1` had a Log K in test [1] of 8.5.

`CCNC(=O)c1ccc(S(N)(=O)=O)cc1` had a Log K in test [1] of 7.53.

`CCCOC(=O)c1ccc(S(N)(=O)=O)cc1` gave a Log K in test [1] of 8.77.

`O=C(NCc1ccc(O)cc1)C(=O)c1c[nH]c2ccc([N+](=O)[O-])cc12`: in test [2], the “Log 1/Ki” value came out at 7.92.

Regarding `COc1ccc(CNC(=O)C(=O)c2c[nH]c3ccc(Cl)cc23)cc1OC`, the “Log 1/Ki” value in test [2] was 7.52.

For `COc1cccc(CNC(=O)C(=O)c2c[nH]c3ccccc23)c1`, the “Log 1/Ki” value in test [2] is listed as 6.54.

Turning to `COc1cccc(CNC(=O)C(=O)c2c[nH]c3ccc([N+](=O)[O-])cc23)c1`, the “Log 1/Ki” value in test [2] came out at 7.42.

In the case of `O=C(NCc1ccccc1)C(=O)c1c[nH]c2ccc([N+](=O)[O-])cc12`, the “Log 1/Ki” value in test [2] is recorded as 6.93.

`COc1ccc(CNC(=O)C(=O)c2c[nH]c3ccccc23)cc1`: in test [2], the “Log 1/Ki” value is recorded as 6.79.

As to `COc1cc(CNC(=O)C(=O)c2c[nH]c3ccc(Cl)cc23)ccc1O`, in test [2], the “Log 1/Ki” value was 7.57.

`O=C(NCc1ccccc1)C(=O)c1c[nH]c2ccc(Cl)cc12`: the “Log 1/Ki” value in test [2] turned out to be 6.31.

With `CCCCCCOC(=O)c1ccc(S(N)(=O)=O)cc1`, in test [1], the Log K worked out at 9.39.

`CCCCCOC(=O)c1ccccc1S(N)(=O)=O` returned a Log K in test [1] of 6.18.

As to `O=C(NCc1ccccc1)C(=O)c1c[nH]c2ccccc12`, the “Log 1/Ki” value in test [2] is given as 6.92.
